For 16 compounds, Ki and Ke results are on record in ChEMBL document CHEMBL1137216, “Identification of a new scaffold for opioid receptor antagonism based on the 2-amino-1,1-dimethyl-7-hydroxytetralin pharmacophore” (J Med Chem, 2004).

The target in test [1] is T1, Kappa-type opioid receptor (Homo sapiens, UniProt P41145). The test can be described thus: Inhibition of [3H]U-69593 binding to human kappa opioid receptor expressed in CHO cells. The format is cell-based.
The target in test [2] is T2, Delta-type opioid receptor (Homo sapiens, UniProt P41143). The test can be described thus: Inhibition of [3H]C1-DPDPE binding to human delta opioid receptor expressed in CHO cells. Type of test: cell-based.
T2 sequence (P41143 whole entry): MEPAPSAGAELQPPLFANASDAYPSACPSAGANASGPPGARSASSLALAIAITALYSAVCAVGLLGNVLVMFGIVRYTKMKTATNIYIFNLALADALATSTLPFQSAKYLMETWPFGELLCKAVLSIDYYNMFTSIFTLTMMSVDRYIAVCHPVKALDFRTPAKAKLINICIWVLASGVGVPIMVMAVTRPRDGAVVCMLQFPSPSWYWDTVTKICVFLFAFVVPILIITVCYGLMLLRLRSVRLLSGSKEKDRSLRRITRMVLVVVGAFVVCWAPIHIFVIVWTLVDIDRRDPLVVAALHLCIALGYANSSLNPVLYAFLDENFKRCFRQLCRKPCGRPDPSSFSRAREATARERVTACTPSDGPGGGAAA
The target in test [3] is T3, Mu-type opioid receptor (Homo sapiens, UniProt P35372). In words: Inhibition of [3H]DAMGO binding to human Mu opioid receptor expressed in CHO cells. The format is cell-based.
T3 sequence (P35372 whole entry): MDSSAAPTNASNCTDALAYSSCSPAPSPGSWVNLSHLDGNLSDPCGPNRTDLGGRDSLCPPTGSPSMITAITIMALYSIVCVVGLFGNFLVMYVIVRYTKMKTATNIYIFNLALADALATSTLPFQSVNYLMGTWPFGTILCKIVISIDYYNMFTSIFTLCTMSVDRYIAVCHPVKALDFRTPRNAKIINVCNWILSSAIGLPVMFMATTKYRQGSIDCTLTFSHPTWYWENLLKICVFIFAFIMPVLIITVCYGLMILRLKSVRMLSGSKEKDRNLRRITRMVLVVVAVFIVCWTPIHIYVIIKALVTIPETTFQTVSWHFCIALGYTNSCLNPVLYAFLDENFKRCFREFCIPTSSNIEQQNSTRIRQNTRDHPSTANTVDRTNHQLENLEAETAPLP
In test [4] the target is T2, Delta-type opioid receptor.
Description: Antagonist potency towards human delta opioid receptor in [35S]GTP-gamma-S, assay
For test [5], the target named is T1, Kappa-type opioid receptor.
Description: Antagonist potency towards human kappa opioid receptor in [35S]GTP-gamma-S, assay
Test [6] addresses T3, Mu-type opioid receptor.
Description: Antagonist potency towards human mu opioid receptor in [35S]GTP-gamma-S, assay
Test [7] deals with T3, Mu-type opioid receptor. The source holds these as a separate data set.
Description: Agonist potency towards human mu opioid receptor in [35S]GTP-gamma-S, assay

Bounds are passed on as bounds.

T1 sequence (P41145 whole entry): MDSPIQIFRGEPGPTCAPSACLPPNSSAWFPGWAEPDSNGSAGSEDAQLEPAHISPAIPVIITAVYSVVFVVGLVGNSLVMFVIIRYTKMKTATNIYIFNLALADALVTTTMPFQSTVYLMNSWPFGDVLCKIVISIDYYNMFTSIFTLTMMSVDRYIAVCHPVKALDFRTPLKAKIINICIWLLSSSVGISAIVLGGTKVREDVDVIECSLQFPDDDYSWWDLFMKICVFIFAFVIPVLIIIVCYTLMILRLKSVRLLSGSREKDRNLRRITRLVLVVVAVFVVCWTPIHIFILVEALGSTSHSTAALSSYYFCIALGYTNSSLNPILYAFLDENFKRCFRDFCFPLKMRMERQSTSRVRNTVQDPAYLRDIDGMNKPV

As a reminder, the Ki is the dissociation constant of the complex between target and ligand, obtained from inhibition or displacement. Take `CO[C@H]1Cc2ccc(O)cc2C(C)(C)[C@@H]1NC/C=C/c1ccccc1`: the results for the Ki (in test [1]; in test [2]; on Mu-type opioid receptor [3]) were 7.5 nM, 22.4 nM and 1.63 nM, respectively. The Ke in test [4] stood at 26.3 nM; in test [5] it was 2.12 nM; on Mu-type opioid receptor [6], 2.62 nM.
As to `C=CCN(CC=C)C1CCc2ccc(O)cc2C1(C)C` (configuration not stated), the inhibitory constant (Ki) in test [1] was determined as 55.8 nM; in test [2], 672 nM; at Mu-type opioid receptor [3], 105 nM.
The like results for `CCCN(CCC)C1CCc2ccc(O)cc2C1(C)C` (configuration not stated) were, in that order, 552 nM, 2720 nM and 482 nM.
With `CO[C@H]1Cc2ccc(O)cc2C(C)(C)[C@@H]1N`, the inhibition constant (Ki) was determined as 149 nM in test [1], 2430 nM in test [2] and 17.5 nM on Mu-type opioid receptor [3]. Moreover, the Ke at Mu-type opioid receptor [7] is 234 nM; in test [5], 49.3 nM.
For the compound `CC1(C)c2cc(O)ccc2CCC1NC/C=C/c1ccccc1` (configuration not stated), the Ki in test [1] stood at 82.3 nM; in test [2], 472 nM; at Mu-type opioid receptor [3], 10.7 nM. The Ke was found to be 42.7 nM in test [5] and 67.7 nM on Mu-type opioid receptor [6].
Consider `CC1(C)c2cc(O)ccc2CCC1N(CC1CC1)CC1CC1` (configuration not stated), for which the Ki in test [1] worked out at 1830 nM; in test [2], 5770 nM; on Mu-type opioid receptor [3], 422 nM.
The like results for `CN(C/C=C/c1ccccc1)C1CCc2ccc(O)cc2C1(C)C` (configuration not stated) were, in that order, 207 nM, 591 nM and 39.7 nM.
Consider `C=CCNC1CCc2ccc(O)cc2C1(C)C` (configuration not stated), for which the Ki in test [1] was found to be 63.7 nM; in test [2], 5830 nM; at Mu-type opioid receptor [3] it was 202 nM.
As to `CN(C)C1CCc2ccc(O)cc2C1(C)C` (configuration not stated), the Ki in test [1] worked out at 333 nM; in test [2], 4010 nM; on Mu-type opioid receptor [3], 114 nM.
On the same counts, the results for `CCCN(C)C1CCc2ccc(O)cc2C1(C)C` (configuration not stated) are 184 nM, 2090 nM and 85 nM.
As for `CC1(C)c2cc(O)ccc2CCC1NCC1CC1` (configuration not stated), the figures for the inhibition constant Ki (in test [1]; in test [2]; on Mu-type opioid receptor [3]) were 232 nM, 3830 nM and 312 nM, respectively.
Turning to `Oc1ccc2c3c1O[C@H]1c4[nH]c5c(c4C[C@@]4(O)[C@@H](C2)N(CC2CC2)CC[C@]314)C[C@@]1(O)[C@H]2Cc3ccc(O)c4c3[C@@]1(CCN2CC1CC1)[C@H]5O4`, the Ke in test [5] was 0.03 nM.
Regarding `CC1(C)c2cc(O)ccc2CCC1N(C/C=C/c1ccccc1)C/C=C/c1ccccc1` (configuration not stated), the results for the inhibitory constant (Ki) (in test [1]; in test [2]; at Mu-type opioid receptor [3]) were 1250 nM, over 10000 nM and 268 nM, respectively.
As for `C=CCN(C)C1CCc2ccc(O)cc2C1(C)C` (configuration not stated), the values for the inhibition constant Ki in test [1] and in test [2] were 263 nM and 2220 nM, respectively.
Consider `CCCNC1CCc2ccc(O)cc2C1(C)C` (configuration not stated), for which the inhibitory constant (Ki) in test [1] was 251 nM; in test [2], over 10000 nM; on Mu-type opioid receptor [3], 491 nM.
On the same counts, the results for `CN(CC1CC1)C1CCc2ccc(O)cc2C1(C)C` (configuration not stated) are 146 nM, 601 nM and 104 nM.
